Laboratory results from patent US20080311185A1, “Deregulated Genes and/or Processes in Inflammatory Arthritis” (priority 2005, published 2008).
Starred links: 1 amine or outer side, 2 acyl side, 3 side chain; linkers in the order of their positions; H or OH if unused. Positions of bridges follow the written chain, without caps; N, C: chain ends. Non-standard residues stand in square brackets, D forms with d. Residues, ends and D or L forms follow the SMILES beside them. Trp(2-yl) = O=C([C@H](Cc1c([*:3])[nH]c2ccccc12)N[*:1])[*:2]; Leu(4R-OH,5-OH) = C[C@](O)(CO)C[C@H](N)C(=O)O; cisHyp = O=C(O)[C@@H]1C[C@H](O)CN1

Tests used:
HeLa cells = details: Kulms et al, 2002; cited from earlier work
[1] = test system: Tg197 synovial fibroblasts; assay: Proliferation assay of Tg197 synovial fibroblasts after drug treatment; type: cell-based, mouse; details: FIG. 9
Procedure: FIG. 7. […] Mean averages of triplicates with mean background (adhesion to BSA) values subtracted. Representative experiment out of three (t-test; P<0.05). (C) DNA synthesis/proliferation assay in the presence or absence of 10% FBS, 48 h after treatment. Values represent [3H]Thymidine incorporation (×10^3). Mean average of triplicates (t test; P<0.05). (D) Assay of wound-healing treated with Mytomycin C for 2 h. Pictures were taken at Oh and 24 h after the wound (Oh not shown). (E) TNF cytotoxicity assay with cyclohexamide. After 24 h survival was determined using the crystal violet assay. (F) Apoptosis assay using 30-300 μM etoposide. (G) Apoptosis assay using 0.01-1 μM staurosporine.
(§1) Disruption of actin cytoskeleton was induced with 4 μg/ml of Latrunculin A (Sigma) for 2 h at 37° C. as previously described (Spector et al, 1989). As control of TNFα involvement in actin-cytoskeleton organisation 1 μg/ml of anti-TNF (Infliximab) was added on the cells for the same period of time.

[2] = test system: Tg197 synovial fibroblasts; assay: Adhesion assay of Tg197 synovial fibroblasts after drug treatment; type: cell-based, mouse; details: drug treatment 2 h at 37° C., FIG. 8
Procedure: (§2) FIG. 8. Adhesion/Migration assays showing the effect of Lat-A on Tg197 actin-cytoskeleton properties.
Adhesion assays were performed on Cytometrix adhesion strips (Chemicon) coated with human fibronectin, vitronectin, laminin and collagen I, according to the manufacturer instructions.
as §1

[3] = test system: Tg197 synovial fibroblasts; assay: Apoptosis assay using staurosporine as inducer of cell death; type: cell-based, mouse; details: FIG. 10
Procedure: Confluent mouse synovial fibroblasts were washed twice with phosphate-buffered saline (PBS) and placed in DMEM without serum for 24 h. The following day 1.5×10^4 cells were plated into each well of a 96-well flat-bottom plate (Costar, Corning Inc.) in 100 μl of media plus serum. After 24 h, cells were treated with 12.5-100 ng/ml TNFα plus 0.5-3 μg/ml cyclohexamide (CHX), 30-300 μM Etoposide and 0.01-1 μM Staurosporine, for 24 h at 37° C. overnight. Cell survival was determined using the crystal violet assay. The absorbance at 570 nm was determined on a microplate reader (SPECTRAmax PLUS^384, Molecular Devices, Sunnyvale, Calif., USA), as previously described (Aidinis et al, 2003). Results are expressed as the means±S.E. of one representative experiment performed in triplicate. Statistical analysis was performed using Student's t test, with a level of significance set at p<0.05.
as §1

[4] = test system: Tg197 synovial fibroblasts; assay: Migration assay of Tg197 synovial fibroblasts after drug treatment; type: cell-based, mouse; details: drug treatment 2 h at 37° C., compare to Wt, FIG. 8
Procedure: as §2, §1

Molecule | apoptosis in HeLa cells (HeLa cells) | proliferation levels of TgSFs [1] | adhesion of TgSF's [2] | resistance to apoptosis [3] | migration of TgSF's [4]
C=C1[C@@H](C)[C@H]2[C@H](Cc3ccccc3)NC(=O)[C@]23[C@H](OC(C)=O)/C=C/[C@@](C)(O)C(=O)[C@@H](C)C/C=C/[C@H]3[C@@H]1O [Cytochalasin D] | enhances apoptosis | – | – | – | –
C/C1=C/C(=O)O[C@@H]2C[C@@H](CC[C@H](C)/C=C\C=C\CC1)O[C@@](O)([C@@H]1CSC(=O)N1)C2 [Lat-A, Latrunculin A] | – | decline lower even than the levels of WtSFs | decreased adhesion | decreased resistance to apoptosis at the levels of the Wt SFs | migration seems to be increased
C[C@@H]1NC(=O)[C@H](C[C@@](C)(O)CO)NC(=O)[C@@H]2Cc3c([nH]c4ccccc34)SC[C@H](NC(=O)[C@@H]([C@H](C)O)NC1=O)C(=O)N1C[C@@H](O)C[C@H]1C(=O)N[C@@H](C)C(=O)N2 [phalloidin] (cyclo(A[dT]C[cisHyp]A[Trp(2-yl)][Leu(4R-OH,5-OH)]); thioether 3-6) | does not affect apoptosis | – | – | – | –
TNFα | – | do not have an effect | – | – | –
anti-TNF: anti-TNF (Infliximab), control of TNFα involvement in actin-cytoskeleton organisation | – | – | do not show altered adhesion/migration properties | – | do not show altered adhesion/migration properties
